Experimental data as given in patent US20210045385A1, “PYRIDAZINONE-SUBSTITUTED KETOXIMES AS HERBICIDES” (FMC Corporation, priority 2018, published 2021).

Assays:
Format in all cases: in vivo
[1] = tested on: Italian ryegrass (Lolium mutiflorum); assay: Test C preemergence, visual plant response rating
Outline: (§1)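 Compounds in a non-phytotoxic solvent with surfactant were applied as a directed soil spray preemergence or to 2–10 cm, one- to two-leaf plants postemergence, in loam–sand soil. After about 10 d in a greenhouse, injury was visually rated against untreated controls on a 0–100 scale (100 = complete control).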

[2] = tested on: barnyardgrass (Echinochloa crus-galli); assay: Test C preemergence, visual plant response rating
Outline: as §1

[3] = tested on: foxtail, giant (giant foxtail, Setaria faberi); assay: Test C preemergence, visual plant response rating
Outline: as §1

kochia (Bassia scoparia) [4] = assay: Test C preemergence, visual plant response rating
Outline: as §1

[5] = tested on: pigweed (Amaranthus retroflexus); assay: Test C preemergence, visual plant response rating
Outline: as §1

[6] = tested on: ragweed (common ragweed, Ambrosia artemisiifolia); assay: Test C preemergence, visual plant response rating
Outline: as §1

[7] = tested on: Italian ryegrass (Lolium mutiflorum); assay: Test C postemergence, visual plant response rating
Outline: as §1

[8] = tested on: barnyardgrass (Echinochloa crus-galli); assay: Test C postemergence, visual plant response rating
Outline: as §1

[9] = tested on: blackgrass (Alopecurus myosuroides); assay: Test C postemergence, visual plant response rating
Outline: as §1

corn (Zea mays) = assay: Test C postemergence, visual plant response rating
Outline: as §1

[10] = tested on: foxtail, giant (giant foxtail, Setaria faberi); assay: Test C postemergence, visual plant response rating
Outline: as §1

[11] = tested on: galium (catchweed bedstraw, Galium aparine); assay: Test C postemergence, visual plant response rating
Outline: as §1

kochia (Bassia scoparia) [12] = assay: Test C postemergence, visual plant response rating
Outline: as §1

[13] = tested on: pigweed (Amaranthus retroflexus); assay: Test C postemergence, visual plant response rating
Outline: as §1

[14] = tested on: ragweed (common ragweed, Ambrosia artemisiifolia); assay: Test C postemergence, visual plant response rating
Outline: as §1

[15] = tested on: wheat (Triticum aestivum); assay: Test C postemergence, visual plant response rating
Outline: as §1

[16] = tested on: barnyardgrass (Echinochloa crus-galli); assay: Test D flooded paddy test, visual plant response rating; details: 250 g ai/ha, scale 0 to 100 (0 no effect, 100 complete control), 13 to 15 d
Outline: (§2)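 2-leaf plants, flooded 3 cm, cpd into paddy water; greenhouse 13–15 d; visual rating vs controls, 0 = no effect, 100 = complete control; dash = no result.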

[17] = tested on: duck salad (Heteranthera limosa); assay: as above; details: 250 g ai/ha, scale 0 to 100 (0 no effect, 100 complete control), 13 to 15 d
Outline: as §2

rice (Oryza sativa) = assay: as above; details: 250 g ai/ha, scale 0 to 100 (0 no effect, 100 complete control), 13 to 15 d
Outline: as §2

[18] = tested on: sedge umbrella (small-flower umbrella sedge, Cyperus difformis); assay: as above; details: 250 g ai/ha, scale 0 to 100 (0 no effect, 100 complete control), 13 to 15 d
Outline: as §2

[19] = Test C, 31 g ai/ha, 0 is no effect, 100 is complete control
[20] = Test C, 125 g ai/ha, 0 is no effect, 100 is complete control
[21] = Test C, postemergence, 125 g ai/ha
[22] = Test C, postemergence, 1000 g ai/ha
[23] = Test C, postemergence, 500 g ai/ha

C#CCO/N=C(/c1ccc(F)c(Cl)c1)c1c(O)c(C)nn(C)c1=O [Compound 229]
40: Pigweed plant response rating (0 to 100 scale) [5, 20] | Ryegrass, Italian plant response rating (0 to 100 scale) ([7]; Postemergence, 31 g ai/ha) | Corn plant response rating (0 to 100 scale) (corn (Zea mays); [21]) | Foxtail, Giant plant response rating (0 to 100 scale) [10, 21]
20: Ryegrass, Italian plant response rating (0 to 100 scale) [1, 19] | Pigweed plant response rating (0 to 100 scale) ([13]; Postemergence, 31 g ai/ha) | Ragweed plant response rating (0 to 100 scale) [14, 21]
50: Blackgrass plant response rating (0 to 100 scale) ([9]; Postemergence, 31 g ai/ha) | Pigweed plant response rating (0 to 100 scale) [13, 21]
80: Galium plant response rating (0 to 100 scale) [11, 21]
0: Barnyardgrass plant response rating (0 to 100 scale) [2, 19] | Kochia plant response rating (0 to 100 scale) (kochia (Bassia scoparia) [4]; [19]) | Kochia plant response rating (0 to 100 scale) (kochia (Bassia scoparia) [4]; [20]) | Ragweed plant response rating (0 to 100 scale) [6, 19] | Ragweed plant response rating (0 to 100 scale) [6, 20] | Barnyardgrass plant response rating (0 to 100 scale) ([8]; Postemergence, 31 g ai/ha) | Blackgrass plant response rating (0 to 100 scale) [9, 21] | Corn plant response rating (0 to 100 scale) (corn (Zea mays); Postemergence, 31 g ai/ha) | Kochia plant response rating (0 to 100 scale) (kochia (Bassia scoparia) [12]; Postemergence, 31 g ai/ha) | Kochia plant response rating (0 to 100 scale) (kochia (Bassia scoparia) [12]; [21]) | Plant response rating, Barnyardgrass (Flood) [16] | Plant response rating, Ducksalad (Flood) [17] | Plant response rating, Rice (Flood) (rice (Oryza sativa)) | Plant response rating, Sedge, Umbrella (Flood) [18]
70: Ryegrass, Italian plant response rating (0 to 100 scale) [7, 21]
10: Foxtail, Giant plant response rating (0 to 100 scale) [3, 19] | Pigweed plant response rating (0 to 100 scale) [5, 19] | Foxtail, Giant plant response rating (0 to 100 scale) ([10]; Postemergence, 31 g ai/ha) | Ragweed plant response rating (0 to 100 scale) ([14]; Postemergence, 31 g ai/ha)
60: Galium plant response rating (0 to 100 scale) ([11]; Postemergence, 31 g ai/ha) | Wheat plant response rating (0 to 100 scale) [15, 21]
30: Barnyardgrass plant response rating (0 to 100 scale) [2, 20] | Foxtail, Giant plant response rating (0 to 100 scale) [3, 20] | Barnyardgrass plant response rating (0 to 100 scale) [8, 21] | Wheat plant response rating (0 to 100 scale) ([15]; Postemergence, 31 g ai/ha)
90: Ryegrass, Italian plant response rating (0 to 100 scale) [1, 20]

CC(C)O/N=C(\c1c(O)cnn(C)c1=O)c1cccc2ccccc12 [Compound 222]
20: Foxtail, Giant plant response rating (0 to 100 scale) [10, 22]
100: Pigweed plant response rating (0 to 100 scale) ([5]; 1000 g ai/ha)
50: Foxtail, Giant plant response rating (0 to 100 scale) ([3]; 1000 g ai/ha) | Ragweed plant response rating (0 to 100 scale) ([6]; 1000 g ai/ha) | Ragweed plant response rating (0 to 100 scale) [14, 22]
0: Ryegrass, Italian plant response rating (0 to 100 scale) ([1]; 1000 g ai/ha) | Barnyardgrass plant response rating (0 to 100 scale) ([2]; 1000 g ai/ha) | Kochia plant response rating (0 to 100 scale) (kochia (Bassia scoparia) [4]; 1000 g ai/ha) | Ryegrass, Italian plant response rating (0 to 100 scale) [7, 22] | Blackgrass plant response rating (0 to 100 scale) [9, 22] | Corn plant response rating (0 to 100 scale) (corn (Zea mays); [22]) | Kochia plant response rating (0 to 100 scale) (kochia (Bassia scoparia) [12]; [22]) | Wheat plant response rating (0 to 100 scale) [15, 22] | Plant response rating, Barnyardgrass (Flood) [16] | Plant response rating, Ducksalad (Flood) [17] | Plant response rating, Rice (Flood) (rice (Oryza sativa)) | Plant response rating, Sedge, Umbrella (Flood) [18]
90: Galium plant response rating (0 to 100 scale) [11, 22] | Pigweed plant response rating (0 to 100 scale) [13, 22]
10: Barnyardgrass plant response rating (0 to 100 scale) [8, 22]

CO/N=C(\c1ccc(F)c(Cl)c1)c1c(O)c(C)nn(C)c1=O [Compound 219]
20: Barnyardgrass plant response rating (0 to 100 scale) ([8]; Postemergence, 31 g ai/ha) | Pigweed plant response rating (0 to 100 scale) ([13]; Postemergence, 31 g ai/ha)
10: Pigweed plant response rating (0 to 100 scale) [5, 20] | Kochia plant response rating (0 to 100 scale) (kochia (Bassia scoparia) [12]; Postemergence, 31 g ai/ha) | Ragweed plant response rating (0 to 100 scale) [14, 21]
0: Ryegrass, Italian plant response rating (0 to 100 scale) [1, 19] | Ryegrass, Italian plant response rating (0 to 100 scale) [1, 20] | Barnyardgrass plant response rating (0 to 100 scale) [2, 19] | Barnyardgrass plant response rating (0 to 100 scale) [2, 20] | Foxtail, Giant plant response rating (0 to 100 scale) [3, 19] | Foxtail, Giant plant response rating (0 to 100 scale) [3, 20] | Kochia plant response rating (0 to 100 scale) (kochia (Bassia scoparia) [4]; [19]) | Kochia plant response rating (0 to 100 scale) (kochia (Bassia scoparia) [4]; [20]) | Pigweed plant response rating (0 to 100 scale) [5, 19] | Ragweed plant response rating (0 to 100 scale) [6, 19] | Ragweed plant response rating (0 to 100 scale) [6, 20] | Ryegrass, Italian plant response rating (0 to 100 scale) ([7]; Postemergence, 31 g ai/ha) | Blackgrass plant response rating (0 to 100 scale) ([9]; Postemergence, 31 g ai/ha) | Blackgrass plant response rating (0 to 100 scale) [9, 21] | Corn plant response rating (0 to 100 scale) (corn (Zea mays); Postemergence, 31 g ai/ha) | Corn plant response rating (0 to 100 scale) (corn (Zea mays); [21]) | Foxtail, Giant plant response rating (0 to 100 scale) ([10]; Postemergence, 31 g ai/ha) | Foxtail, Giant plant response rating (0 to 100 scale) [10, 21] | Ragweed plant response rating (0 to 100 scale) ([14]; Postemergence, 31 g ai/ha) | Wheat plant response rating (0 to 100 scale) ([15]; Postemergence, 31 g ai/ha) | Wheat plant response rating (0 to 100 scale) [15, 21] | Plant response rating, Barnyardgrass (Flood) [16] | Plant response rating, Ducksalad (Flood) [17] | Plant response rating, Rice (Flood) (rice (Oryza sativa)) | Plant response rating, Sedge, Umbrella (Flood) [18]
40: Ryegrass, Italian plant response rating (0 to 100 scale) [7, 21] | Pigweed plant response rating (0 to 100 scale) [13, 21]
30: Barnyardgrass plant response rating (0 to 100 scale) [8, 21]
50: Galium plant response rating (0 to 100 scale) ([11]; Postemergence, 31 g ai/ha) | Kochia plant response rating (0 to 100 scale) (kochia (Bassia scoparia) [12]; [21])
60: Galium plant response rating (0 to 100 scale) [11, 21]

CON=C(c1csc(C)c1)c1c(O)c(C)nn(C)c1=O [Compound 151]
0: Ryegrass, Italian plant response rating (0 to 100 scale) ([1]; 125 g ai/ha) | Barnyardgrass plant response rating (0 to 100 scale) ([2]; 125 g ai/ha) | Barnyardgrass plant response rating (0 to 100 scale) ([2]; 500 g ai/ha) | Foxtail, Giant plant response rating (0 to 100 scale) ([3]; 125 g ai/ha) | Foxtail, Giant plant response rating (0 to 100 scale) ([3]; 500 g ai/ha) | Kochia plant response rating (0 to 100 scale) (kochia (Bassia scoparia) [4]; 125 g ai/ha) | Kochia plant response rating (0 to 100 scale) (kochia (Bassia scoparia) [4]; 500 g ai/ha) | Pigweed plant response rating (0 to 100 scale) ([5]; 125 g ai/ha) | Pigweed plant response rating (0 to 100 scale) ([5]; 500 g ai/ha) | Ragweed plant response rating (0 to 100 scale) ([6]; 125 g ai/ha) | Ragweed plant response rating (0 to 100 scale) ([6]; 500 g ai/ha) | Barnyardgrass plant response rating (0 to 100 scale) [8, 21] | Blackgrass plant response rating (0 to 100 scale) [9, 21] | Corn plant response rating (0 to 100 scale) (corn (Zea mays); [21]) | Corn plant response rating (0 to 100 scale) (corn (Zea mays); [23]) | Foxtail, Giant plant response rating (0 to 100 scale) [10, 21] | Kochia plant response rating (0 to 100 scale) (kochia (Bassia scoparia) [12]; [21]) | Ragweed plant response rating (0 to 100 scale) [14, 21] | Wheat plant response rating (0 to 100 scale) [15, 21] | Wheat plant response rating (0 to 100 scale) [15, 23] | Plant response rating, Barnyardgrass (Flood) [16] | Plant response rating, Ducksalad (Flood) [17] | Plant response rating, Rice (Flood) (rice (Oryza sativa)) | Plant response rating, Sedge, Umbrella (Flood) [18]
20: Ryegrass, Italian plant response rating (0 to 100 scale) [7, 21] | Kochia plant response rating (0 to 100 scale) (kochia (Bassia scoparia) [12]; [23])
10: Barnyardgrass plant response rating (0 to 100 scale) [8, 23] | Foxtail, Giant plant response rating (0 to 100 scale) [10, 23] | Pigweed plant response rating (0 to 100 scale) [13, 21] | Pigweed plant response rating (0 to 100 scale) [13, 23]
40: Galium plant response rating (0 to 100 scale) [11, 21]
30: Ryegrass, Italian plant response rating (0 to 100 scale) ([1]; 500 g ai/ha) | Ryegrass, Italian plant response rating (0 to 100 scale) [7, 23] | Blackgrass plant response rating (0 to 100 scale) [9, 23] | Ragweed plant response rating (0 to 100 scale) [14, 23]
50: Galium plant response rating (0 to 100 scale) [11, 23]
